Measurements as given in patent US8283357B2, “Cycloalkylcarbamate benzamide aniline HDAC inhibitor compounds” (Gilead Sciences, Inc., priority 2009, dated 2012).

Key:
HDAC-3 = HDAC-3 (Homo sapiens, UniProt O15379); assay: HDAC-3 inhibitory activity assay (fluorophore/quencher peptide substrate); assay type: biochemical; settings: enzyme/compound pre-incubated 2 hours at room temperature; reaction about 45 minutes
Description: (§1) HDAC inhibitory activity of the compound of Example 1 was measured by an assay in which HDAC-1 or -3 were used as a target molecule. The test compound was suspended in and titrated in DMSO. It was then spotted into a 384-well test plate. The enzyme, HDAC-1 or -3, was diluted in assay buffer containing 25 mM Tris-HCl (pH 8.0), 137 mM NaCl, 2.7 mM KCl, and 0.01% Tween-20 and added to the pre-spotted compound. The enzyme/compound mix was incubated at room temperature for 2 hours. The peptide substrate containing a fluorophore/quencher pair was diluted in the same assay buffer and added to the compound/enzyme mix initiating the reaction. The reaction incubated at room temperature for about 45 minutes. A concentrated developer solution was diluted in the assay buffer, and added to the reaction. The reaction was incubated at room temperature for about 15 minutes and relative fluorescence was read on an instrument reader.

HDAC-1 = HDAC-1 (Homo sapiens, UniProt Q13547); assay: HDAC-1 inhibitory activity assay (fluorophore/quencher peptide substrate); assay type: biochemical; settings: enzyme/compound pre-incubated 2 hours at room temperature; reaction about 45 minutes
Sequence of HDAC-1 (Q13547 whole entry, species assumed): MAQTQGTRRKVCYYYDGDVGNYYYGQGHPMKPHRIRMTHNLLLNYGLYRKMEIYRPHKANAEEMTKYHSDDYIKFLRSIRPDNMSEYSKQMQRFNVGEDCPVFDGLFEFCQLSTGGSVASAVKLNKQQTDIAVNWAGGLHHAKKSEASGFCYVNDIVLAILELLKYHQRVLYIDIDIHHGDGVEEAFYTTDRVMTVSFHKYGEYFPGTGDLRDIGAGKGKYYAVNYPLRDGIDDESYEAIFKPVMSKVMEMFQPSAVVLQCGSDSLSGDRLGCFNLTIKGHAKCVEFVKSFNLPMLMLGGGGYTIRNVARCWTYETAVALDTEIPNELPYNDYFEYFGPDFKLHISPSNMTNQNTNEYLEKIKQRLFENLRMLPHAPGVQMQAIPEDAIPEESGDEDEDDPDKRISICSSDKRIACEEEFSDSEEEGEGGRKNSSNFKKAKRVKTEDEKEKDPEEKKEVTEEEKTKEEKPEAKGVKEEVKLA
Description: as §1

Sequence of HDAC-3 (O15379 whole entry, species assumed): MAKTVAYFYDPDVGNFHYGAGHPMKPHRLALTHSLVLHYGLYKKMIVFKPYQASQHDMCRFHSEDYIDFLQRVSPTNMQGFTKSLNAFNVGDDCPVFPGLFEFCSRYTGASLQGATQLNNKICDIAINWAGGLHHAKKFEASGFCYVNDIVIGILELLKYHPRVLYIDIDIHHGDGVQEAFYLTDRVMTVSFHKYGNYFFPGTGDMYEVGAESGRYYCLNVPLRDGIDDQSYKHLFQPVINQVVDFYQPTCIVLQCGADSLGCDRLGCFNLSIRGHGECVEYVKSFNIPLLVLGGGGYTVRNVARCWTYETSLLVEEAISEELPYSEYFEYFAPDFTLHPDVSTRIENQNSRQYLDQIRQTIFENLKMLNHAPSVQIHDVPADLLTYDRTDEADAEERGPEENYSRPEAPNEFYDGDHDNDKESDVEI
Sequence of HDAC-3 (Q9Y618 395-489 partner limits assumed, species assumed): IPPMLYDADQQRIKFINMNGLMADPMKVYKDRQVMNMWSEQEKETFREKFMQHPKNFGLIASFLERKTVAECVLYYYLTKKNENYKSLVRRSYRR

SMILES	IC50 (HDAC-3) [µM]	IC50 (HDAC-1) [µM]
CC(C)(C)OC(=O)NC1(C(=O)Nc2ccc(C(=O)Nc3ccccc3N)cc2)CCCC1 [Example 3, tert-Butyl-1((4-((2-aminophenyl)carbamoyl)phenyl)carbamoyl)cyclopentylcarbamate]	0.482	0.0609
CC(C)(C)OC(=O)NC1(C(=O)Nc2ccc(C(=O)Nc3ccccc3N)cc2)CC1 [Example 2, tert-Butyl-1-((4-((2-aminophenyl)carbamoyl)phenyl)carbamoyl)cyclopropyl carbamate]	0.378	0.0628
Nc1ccc(-c2ccc(F)cc2)cc1NC(=O)c1ccc(NC(=O)C2(N)CC2)cc1 [Example 10, N-(4-Amino-4′-fluorobiphenyl-3-yl)-4-(1-aminocyclopropanecarboxamido)benzamide]	> 10	0.0052
CC(C)(C)NC(=O)NC1(C(=O)Nc2ccc(C(=O)Nc3cc(-c4ccc(F)cc4)ccc3N)cc2)CC1 [Example 11, N-(4-amino-4′-fluorobiphenyl-3-yl)-4-(1-(3-tert-butylureido)cyclopropanecarboxamido)benzamide]	> 10	0.009
Nc1ccc(-c2ccc(F)cc2)cc1NC(=O)c1ccc(NC(=O)C2(NC(=O)OCc3ccccc3)CC2)cc1 [Example 6, Benzyl-1-((4-((2-amino-5-(4-fluorophenyl)phenyl)carbamoyl)phenyl)carbamoyl)cyclopropyl carbamate]	> 10	0.0074
Nc1ccccc1NC(=O)c1ccc(NC(=O)C2(NC(=O)OCc3ccccc3)CC2)cc1 [Example 4, Benzyl-1-((4-((2-aminophenyl)carbamoyl)phenyl)carbamoyl)cyclopropyl carbamate]	0.171	0.025
Nc1ccc(-c2ccc(Cl)s2)cc1NC(=O)c1ccc(NC(=O)C2(NC(=O)OCc3ccccc3)CC2)cc1 [Example 7, Benzyl-1-((4-((2-amino-5-(5-chlorothiophen-2-yl)phenyl)carbamoyl)phenyl)carbamoyl)cyclopropylcarbamate]	> 10	0.0267
Nc1ccc(-c2cccs2)cc1NC(=O)c1ccc(NC(=O)C2(NC(=O)OCc3ccccc3)CC2)cc1 [Example 5, Benzyl-1-((4-((2-amino-5-(thiophen-2-yl)phenyl)carbamoyl)phenyl)carbamoyl)cyclopropyl carbamate]	> 10	0.0034
CC(C)(C)OC(=O)NC1(C(=O)Nc2ccc(C(=O)Nc3ccccc3N)cc2)CCCCC1 [Example 1, tert-Butyl-1-((4-((2-aminophenyl)carbamoyl)phenyl)carbamoyl)cyclohexyl carbamate]	0.378	0.0447
Nc1ccc(-c2cccs2)cc1NC(=O)c1ccc(NC(=O)C2(NC(=O)OCc3ccccc3)CC2)c(F)c1 [Example 8, Benzyl-1-((4-((2-amino-5-(thiophen-2-yl)phenyl)carbamoyl)-2-fluorophenyl)carbamoyl)cyclopropylcarbamate]	> 10	0.0056
CN(C(=O)C1(NC(=O)OCc2ccccc2)CC1)c1ccc(C(=O)Nc2cc(-c3ccc(F)cc3)ccc2N)cc1 [Example 9, Benzyl-1-((4-((2-amino-5-(4-Fluorophenyl)phenyl)carbamoyl)phenyl)(methyl)carbamoyl)cyclopropylcarbamate]	7.51	0.0082
